# Test results from US20240327320A1, “NOVEL ROUTES OF CHEMICAL SYNTHESIS OF 20S(OH)D3, 20S,25(OH)2D3, 20S,23S(OH)2D3, AND 20S,23R(OH)2D3 AND THEIR MODIFICATION OF THE IMMUNE ACTIVITY OF PBMCS” (United State Government as represen ted by the Department …, priority 2023, published 2024).
# What was measured:
# [1] = biological target: T1, Mouse CYP27B1 (Mus musculus, UniProt O35084); assay: CYP27B1 activity on secosteroids in phospholipid vesicles (1α-hydroxylation); assay type: in vitro ADME; conditions: for 1α-hydroxylase activity: 0.025 mol secosteroid/mol phospholipid, CYP27B1 0.2 μM, mean±SD, n=3; for rate / efficiency of 1α-hydroxylation by CYP27B1, in words: phospholipid vesicles, mouse CYP27B1
# T1 construct: made in house; host or cells: E. coli
# T1 sequence (O35084 1-507): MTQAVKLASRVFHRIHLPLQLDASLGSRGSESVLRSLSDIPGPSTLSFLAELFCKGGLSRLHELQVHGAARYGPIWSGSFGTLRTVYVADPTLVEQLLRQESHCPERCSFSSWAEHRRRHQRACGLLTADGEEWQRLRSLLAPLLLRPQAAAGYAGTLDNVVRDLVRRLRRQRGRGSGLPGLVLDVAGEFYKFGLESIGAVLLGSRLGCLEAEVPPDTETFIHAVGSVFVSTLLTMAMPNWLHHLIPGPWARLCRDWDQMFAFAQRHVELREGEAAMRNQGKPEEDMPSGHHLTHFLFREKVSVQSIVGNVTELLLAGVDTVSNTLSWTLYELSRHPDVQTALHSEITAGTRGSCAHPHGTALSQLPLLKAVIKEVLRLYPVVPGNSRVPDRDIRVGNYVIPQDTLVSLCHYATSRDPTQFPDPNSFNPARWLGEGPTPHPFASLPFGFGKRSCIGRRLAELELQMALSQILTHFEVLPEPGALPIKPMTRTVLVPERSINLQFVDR
# Experimental: Mouse CYP27B1 was expressed in E. coli and purified (Tang E K, et. al., (2010) Drug Metabolism and Disposition, 38(9) 1553-9). CYP27B1 activity was measured on substrate incorporated into the membrane of phospholipid vesicles as described previously. Briefly, phospholipid vesicles were prepared by sonication of dioleoyl phosphatidylcholine, cardiolipin and secosteroid. Vesicles (510 μM phospholipid) were then incubated at 37° C. with CYP27B1 (0.2 μM) in buffer comprising 20 mM Hepes, pH 7.4, 100 mM NaCl, 0.1 mM EDTA, 0.1 mM and dithiothreitol, adrenodoxin (15 μM), adrenodoxin reductase (0.4 μM), glucose-6-phosphate (2 mM), glucose-6-phosphate dehydrogenase (2 U/mL) and NAPDH (50 μM) in a volume of 0.5 ml. After reaction (5 or 20 min), the incubation mixture was extracted 3-times with 2.5 ml dichloromethane, extracts combined, dried under N2 gas and dissolved in 64% methanol. Samples were analysed by reverse phase HPLC on a Grace Alltima column (25×0.46 cm) using a gradient of 64 to 100% methanol for 15 min followed by 100% methanol for 30 min, at a flow rate of 0.5 ml/min. Metabolites were detected with a UV detector at 265 nm.
# All four chemically synthesized secosteroids were converted to their expected 1α-hydroxy derivatives by CYP27B1, and identified on the basis of previous studies on the enzymatically and/or chemically derived substrates (Li W, et. al., (2010) Steroids 75(12) 926-35, Tang E K, et. al., (2013) Drug metabolism and disposition: the biological fate of chemicals 41(5) 1112-24, Lin Z, et. al., (2016) J Med Chem 59(10) 5102-8, Tang E K, et. al., (2010) Drug metabolism and disposition: the biological fate of chemicals 38(9) 1553-9). Secosteroids were incorporated into phospholipid vesicles at a ratio of 0.025 mol secosteroid/mol phospholipid and incubated with mouse CYP27B1 (0.2 μM) for 20 min for all substrates except 20S,25(OH)2D3 which was incubated for 5 min. Extracted samples were analyzed by reverse-phase HPLC. Data are mean±SD, n=3. […] In summary, the efficiency of metabolism of D3 derivatives by CYP27B1 is as follows: 20S,25(OH)2D3>>20S,23S(OH)2D3>20S(OH)D3=20S,23R(OH)2D3.
# [2] = tested on: CYP24A1 (downstream target of the activated VDR); assay: CYP24A1 expression, qPCR of downstream enzymes; assay type: cell-based; conditions: FIG. 8C
# Experimental: RNA isolation and reverse transcription were performed as described previously (Slominski A T, et. al., (2021) Sci Rep 11(1) 8002). Quantitative RT-PCR was carried out using Sybr green Master Mix (Thermo Scientific, Waltham, MA), in triplicates as previously described (Slominski A T, et. al., (2021) Sci Rep 11(1) 8002; Janjetovic Z, et. al., (2014) J Pineal Res 57(1) 90-102). Human epidermal keratinocytes (HEKn) isolated from foreskin of white neonates were cultured until the third passage before treatment as described in the literature (Chaiprasongsuk A, et. al., (2019) Redox Biol 24 101206; Janjetovic Z, et. al., (2009) PloS one 4(6) e5988). Cells were treated with vitamin D3 derivatives for 8 h or 24 h and harvested for RNA isolation. Approximately 300 ng of RNA was used for cDNA synthesis and an equal amount of cDNA was used for PCR reactions. Cyclophilin B or GAPDH was used as an internal control. Primers sequences are listed in (Chaiprasongsuk A, et. al., (2020) Free Radic Biol Med 155 87-9845, Slominski A T, et. al., (2017) Sci Rep 7(1) 11434). Reactions were done in triplicate.
# To better define the properties of the newly synthesized secosteroids, their activities on the VDR, AhR and LXR were tested by performing functional assays which were further validated by qPCR of downstream enzymes (FIGS. 8A-F) and molecular modeling (FIG. 9-13). Binding affinities of top-scored docking complexes of vitamin D3 hydroxy derivatives with VDR, AhR, LXRs (LXRα, LXRβ) and RORs (RORα, RORγ) from molecular docking are presented in FIG. 9, known ligands for each receptor were used as controls.
"rate / efficiency of 1α-hydroxylation by CYP27B1, in words [1]",1α-hydroxylase activity ([1]; incubated 5 min),Compound,1α-hydroxylase activity ([1]; incubated 20 min),CYP24A1 expression [2]
relatively poorer substrate for CYP27B1,–,"C=C1CC[C@H](O)C/C1=C/C=C1\CCC[C@@]2(C)[C@H]1CC[C@@H]2[C@@](C)(O)CCCC(C)C [20S(OH)D3, (20S)-20-Hydroxyvitamin D3]",0.135 ± 0.005 mol product/min/mol CYP27B1,–
–,–,"C=C1CC[C@H](O)C/C1=C/C=C1\CCC[C@@]2(C)[C@H]1CC[C@@H]2[C@@](C)(O)C[C@H](O)CC(C)C [20S,23R(OH)2D3, (20S,23R)-20,23-Dihydroxyvitamin D3]",0.117 ± 0.027 mol product/min/mol CYP27B1,"significantly less expression than 1α,25(OH)2D3"
high rate of 1α-hydroxylation,7.98 ± 0.24 mol product/min/mol CYP27B1,"C=C1CC[C@H](O)C/C1=C/C=C1\CCC[C@@]2(C)[C@H]1CC[C@@H]2[C@@](C)(O)CCCC(C)(C)O [20S,25(OH)2D3, (20S)-20,25-Dihydroxyvitamin D3]",–,much greater stimulation of CYP24A1 expression than 20S(OH)D3

Compound,"rate / efficiency of 1α-hydroxylation by CYP27B1, in words [1]",1α-hydroxylase activity ([1]; incubated 5 min),1α-hydroxylase activity ([1]; incubated 20 min),CYP24A1 expression [2]
"C=C1CC[C@H](O)C/C1=C/C=C1\CCC[C@@]2(C)[C@H]1CC[C@@H]2[C@@](C)(O)C[C@@H](O)CC(C)C [20S,23S(OH)2D3, (20S,23S)-20,23-Dihydroxyvitamin D3]","metabolized approximately twice as fast as the non-natural 20S,23R-isomer",–,0.258 ± 0.020 mol product/min/mol CYP27B1,"significantly less expression than 1α,25(OH)2D3"
